Here are results for one molecule from patent publication US20190298664A1, “METHOD AND KIT FOR MYOCARDIAL REPERFUSION, AND METHOD FOR ATTENUATING OR REDUCING MYOCARDIAL REPERFUSION INJURY” (Academia Sinica, priority 2018, published 2019).

One test deals with I/R mice. The experiment in a line: Echocardiography (ejection fraction) in I/R mice. The class given is in vivo, mouse. Particulars: 2 mg/kg IP. On the procedure: We anesthetized the mouse with 5% isoflurane mixed with room air until loss of sensation of pain and then maintained the mouse in anesthesia status with 2% isoflurane mixed with room air through the whole procedure. The mouse's body temperature was maintained at 37° C. by a heating pad. After the mouse was intubated, we provided artificial ventilation to the mouse with a small animal ventilator. Then the chest cavity was opened at the second intercostal space and homemade chest retractors were utilized to widen the incision. We pulled the pericardium apart carefully and exposed the left anterior descending artery (LAD). A 7-0 silk was put underneath the LAD at the position of the tip of the left auricle, a 6 mm length of PE-10 tube was put on the surface of the LAD, and then a double knot was made to occlude the blood flow of LAD. The success of ligation was confirmed by […] anterior wall of the LV. For the reperfusion group, the LAD knot would be untied for the purpose of reperfusion after 1 hour of ischemia. For the sham operation group, all procedures were the same except for the knot that occluded the LAD flow. After the successful procedure, we left the silk in situ, closed the chest cavity and weaned the animal from the ventilator. At 1 day and 1 week post the indicated I/R episode, the mice were received echocardiography for evaluating the cardiac function. […]

The next test relates to myocardial PTP activity. Description: Overall myocardial PTP activity by pNPP assay in heart extracts of I/R mice. Particulars: 2 mg/kg IP ten min before reperfusion; four hours post-I/R. The class given is in vivo, mouse. As to the method:
We anesthetized the mouse with 5% isoflurane mixed with room air until loss of sensation of pain and then maintained the mouse in anesthesia status with 2% isoflurane mixed with room air through the whole procedure. The mouse's body temperature was maintained at 37° C. by a heating pad. After the mouse was intubated, we provided artificial ventilation to the mouse with a small animal ventilator. Then the chest cavity was opened at the second intercostal space and homemade chest retractors were utilized to widen the incision. We pulled the pericardium apart carefully and exposed the left anterior descending artery (LAD). A 7-0 silk was put underneath the LAD at the position of the tip of the left auricle, a 6 mm length of PE-10 tube was put on the surface of the LAD, and then a double knot was made to occlude the blood flow of LAD. The success of ligation was confirmed by […] anterior wall of the LV. For the reperfusion group, the LAD knot would be untied for the purpose of reperfusion after 1 hour of ischemia. For the sham operation group, all procedures were the same except for the knot that occluded the LAD flow. […] The released p-nitrophenolate ion is measured by spectrophotometry reading the absorbance at 405 nm. […]

The subject of test [1] is phosphorylation of Paxillin and p130Cas in H9C2 cells. Description: Immunoblotting of H9c2 total lysates for pTyr of Paxillin and p130Cas. The class given is cell-based. The settings on record: H9C2 cells treated with indicated concentrations. On the procedure: Hearts from mice received different treatment were gently homogenized in ice-cold RIPA buffer [250 mM Tris-HCl pH 7.4, 750 mM NaCl, detergent mix (5% NP-40, 2.5% Na-deoxycholate and 0.5% SDS), and 1× protease inhibitor cocktail (EDTA free)] containing phosphatase inhibitors (2 mM Na3VO4, 10 mM NaF, and 10 mM Na2P2O7). The homogenates were centrifuged at 16,100×g at 4° C. for 10 minutes to remove the debris. Protein concentrations were determined by Bradford protein assay. Equal amounts of protein extract from those mice were separated by SDS-PAGE on an 8% or 10% polyacrylamide gel and then transferred to PVDF membrane. Membranes were incubated with indicated primary antibody at 4° C. overnight followed by incubated with secondary antibodies for 1 hour at room temperature. The protein abundance was detected by the signal intensity of each specific band. H9C2 cell lines were purchased from ATCC® organization, U.S. Cell cultures were maintained in Dulbecco modified Eagle medium (DMEM) supplemented with 10% fetal bovine serum (FBS) and 1% Penicillin/Streptomycin at 37° C. incubator in a 5% CO2 humid atmosphere.
(In general: Immunoblotting shows a protein as a band on a membrane.)

Take `CC(=O)OC[C@H]1O[C@@H]([S-])[C@H](OC(C)=O)[C@@H](OC(C)=O)[C@@H]1OC(C)=O.CCP(CC)CC.[Au+]` [Auranofin, auranofin]: the Cardiac ejection fraction result with I/R mice (one day post-MI) is listed as “significant improvement”. Also, the “Restoration of cardiac performance judged by echocardiography” value in the test with I/R mice (one week post-MI) is “sustained up to one week”. Further, the “Overall myocardial PTP activity” value in the test on myocardial PTP activity was “significantly suppressed”. Further, the “Phosphorylation on the specific Tyr residue in Paxillin or p130Cas” value in test [1] is on record as “increase”.
